In patent US20210106566A1, “PHARMACEUTICAL COMPOSITION FOR TREATING AND/OR PREVENTING PERIPHERAL NEUROPATHY OR SPINAL CORD INJURY” (NATIONAL UNIVERSITY CORPORATION NAGOYA UNIVERSITY, priority 2015, published 2021):

How the values were obtained:
JNK1/2/3 = JNK1/2/3 phosphorylation in NSC34 cells; format: cell-based, mouse
[1] = test system: mouse sciatic nerve autologous transplantation model; assay: Mouse sciatic nerve autologous transplantation model: tibialis anterior muscle cross sections; format: in vivo; conditions: 30 mg/kg/day, 8 weeks after surgery
Excerpt: Adult male C57BL/6J mice (8 weeks old; 19.5-22.0 g) were purchased from Charles River. The mice were anesthetized with isoflurane and underwent gluteal muscle incision under a sterile condition to expose the sciatic nerve in the left leg. The sciatic nerve was cut at the following two sites (1) and (2): (1) the site 3 mm distal to the first bifurcation of biceps femoris (hereinafter referred to as proximal transection site) (2) the site 3 mm distal to the proximal transection site (hereinafter referred to as distal transection site) The excised nerve segment with a length of 3 mm was confirmed to be completely cut at the two sites. The perineurium was sutured with nylon thread (10-0 black) at the proximal transection site and the distal transection site under a microscope. The remaining thread was used as a marker for finding the nerve transection site in the sacrifice of the mice. In order to reduce DMSO toxicity, a solution of 60 mg/mL zonisamide in 100% DMSO was prepared and the solution was diluted in olive oil to give a solution of 3 mg/mL zonisamide in 5% DMSO. […] Myelin sheath formation in the sciatic nerve was analyzed in six mice in each group. […] The number and area of myelinated axons in the sciatic nerve were manually measured using ImageJ software in a blinded fashion. […]

[2] = test system: severely crushed spinal cord model mice; assay: Severely crushed spinal cord model mice: rotarod test; format: in vivo, mouse
Excerpt: Female C57BL/6J mice (8 weeks old; 19.5-22.0 g) were purchased from Charles River. The female C57BL/6J mice were anesthetized by intraperitoneally administering pentobarbital sodium and underwent back incision under a sterile condition to perform laminectomy at the 10th thoracic vertebra. The spinal cord was crushed at 100 kdyn using a tip with a diameter of 1.35 mm on IH Spinal Cord Impactor. After the occurrence of hematoma in the spinal cord was confirmed under a microscope, the wound was closed and 1 ml of physiological saline was subcutaneously injected into the posterior neck region to prevent dehydration. The mice with spinal cord injury were separated into two groups in a blinded fashion. […] One day after surgery, motor function of mice in both groups was assessed using BMS score (Basso mouse scale; Li et. al. J Neurosurg Spine 4: 165-173 (2006)) in a blinded fashion to select the mice with BMS score of 1 or lower and consider them as severely crushed spinal cord model mice. […] The latency until a mouse fell off the rotarod (holding time, in seconds; a maximum latency of 300 seconds) was measured in the accelerating rotation mode with an initial speed of 2 rpm, an accelerated speed of 5 rpm/min, and a maximum speed of 40 rpm. The latency was measured 3 times at an interval of 10 minutes and the three measurements were averaged for assessment (FIG. 15).

Q: Which “phosphorylation level of JNK1/2/3” value (JNK1/2/3) does the source give for `NS(=O)(=O)Cc1noc2ccccc12` [Zonisamide, 3-sulfamoylmethyl-1,2-benzisoxazole] here?
A: slightly increased

Q: And the “denervation atrophy of tibialis anterior muscle (cross-sectional area of muscle fibers)” value [1]?
A: promoted recovery from denervation atrophy

Q: And the “holding time on rotarod” value ([2]; day 28 after surgery, 30 mg/kg/day intragastrically)?
A: 135.3 ± 16.4 s

Q: What about the “holding time on rotarod compared to the control group” value ([2]; days 21 and 28 after surgery) of the same molecule?
A: longer
